Source: ChEMBL document CHEMBL2074402, “Expression of multidrug resistance-associated protein in NIH/3T3 cells confers multidrug resistance associated with increased drug efflux and altered intracellular drug distribution” (Cancer Res, 1995)
Numbered stars: 1 amine (or outer) side, 2 acyl side, 3 side chain; on linkers, the order of the positions; unused ones are H or OH. Bridge positions count the residues as written; N and C are the ends. Square brackets hold non-standard residues; d marks the D form. Peptide text beside a SMILES is read from it. I, II: the chains in the order shown. Actinocin(9to1) = Cc1c2oc3c(C)ccc(C(=O)[*:1])c3nc-2c(C(=O)[*:2])c(N)c1=O; NMeV = CN[C@H](C(=O)O)C(C)C; Sar = CNCC(=O)O

Biological target: Multidrug resistance-associated protein 1 (Homo sapiens, UniProt P33527)
Sequence (P33527 whole entry): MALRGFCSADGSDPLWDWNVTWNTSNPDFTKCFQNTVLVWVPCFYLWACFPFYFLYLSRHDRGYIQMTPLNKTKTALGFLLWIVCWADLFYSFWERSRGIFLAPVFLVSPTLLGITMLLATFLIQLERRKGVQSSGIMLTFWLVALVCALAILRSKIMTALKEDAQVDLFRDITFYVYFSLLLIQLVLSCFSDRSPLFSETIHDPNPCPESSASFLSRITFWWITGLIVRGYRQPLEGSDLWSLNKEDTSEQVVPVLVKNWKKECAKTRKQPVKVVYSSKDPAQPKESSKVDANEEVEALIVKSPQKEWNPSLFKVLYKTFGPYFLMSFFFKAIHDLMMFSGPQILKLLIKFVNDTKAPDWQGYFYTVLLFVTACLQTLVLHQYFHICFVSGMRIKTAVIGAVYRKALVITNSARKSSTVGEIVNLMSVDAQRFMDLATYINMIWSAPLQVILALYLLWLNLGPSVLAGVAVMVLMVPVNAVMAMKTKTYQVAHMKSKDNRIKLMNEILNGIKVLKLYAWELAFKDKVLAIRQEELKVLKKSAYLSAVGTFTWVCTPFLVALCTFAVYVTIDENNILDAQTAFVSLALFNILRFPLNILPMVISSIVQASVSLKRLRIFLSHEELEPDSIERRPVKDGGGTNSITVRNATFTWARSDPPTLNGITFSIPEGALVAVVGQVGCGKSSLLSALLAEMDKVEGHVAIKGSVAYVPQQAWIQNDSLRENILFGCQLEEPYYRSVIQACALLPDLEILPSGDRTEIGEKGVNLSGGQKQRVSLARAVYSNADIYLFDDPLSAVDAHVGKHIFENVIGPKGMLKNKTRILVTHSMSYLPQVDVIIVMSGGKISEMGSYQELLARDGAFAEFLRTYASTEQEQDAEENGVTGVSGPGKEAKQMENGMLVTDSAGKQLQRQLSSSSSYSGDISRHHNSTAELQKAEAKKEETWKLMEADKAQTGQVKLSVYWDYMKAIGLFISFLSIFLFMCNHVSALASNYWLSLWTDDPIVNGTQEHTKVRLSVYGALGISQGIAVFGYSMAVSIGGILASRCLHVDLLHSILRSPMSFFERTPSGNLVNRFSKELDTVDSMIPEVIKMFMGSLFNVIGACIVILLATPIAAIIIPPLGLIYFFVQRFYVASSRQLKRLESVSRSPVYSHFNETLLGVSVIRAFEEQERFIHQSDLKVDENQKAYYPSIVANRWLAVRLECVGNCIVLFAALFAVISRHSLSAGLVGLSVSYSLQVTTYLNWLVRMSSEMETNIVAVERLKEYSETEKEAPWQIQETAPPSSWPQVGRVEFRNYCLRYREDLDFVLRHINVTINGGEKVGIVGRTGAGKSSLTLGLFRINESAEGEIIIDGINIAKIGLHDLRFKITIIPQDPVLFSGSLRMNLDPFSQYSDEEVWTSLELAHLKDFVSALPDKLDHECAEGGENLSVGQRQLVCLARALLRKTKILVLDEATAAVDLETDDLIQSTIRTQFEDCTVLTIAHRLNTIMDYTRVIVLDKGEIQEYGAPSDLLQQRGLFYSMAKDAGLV
Assay: TP_TRANSPORTER: drug sensitivity in MRP1-expressing NIH/3T3 cells
Format: functional, cell-based
Details: mouse, nih3t3

Activity: substrate [+]
Compound: Cc1c2oc3c(C)ccc(C(=O)N[C@@H]4C(=O)N[C@H](C(C)C)C(=O)N5CCC[C@H]5C(=O)N(C)CC(=O)N(C)[C@@H](C(C)C)C(=O)O[C@@H]4C)c3nc-2c(C(=O)N[C@@H]2C(=O)N[C@H](C(C)C)C(=O)N3CCC[C@H]3C(=O)N(C)CC(=O)N(C)[C@@H](C(C)C)C(=O)O[C@@H]2C)c(N)c1=O [DACTINOMYCIN] (I: T[dV]P[Sar][NMeV] / II: T[dV]P[Sar][NMeV]; ester I:1-I:C, II:1-II:C; linker I:N-II:N via Actinocin(9to1))
